From patent USRE39591E1, “6-O-substituted ketolides having antibacterial activity” (Abbott Laboratories, priority 1996, dated 2007)
≈ marks a conversion by molar mass, not a printed value.

System: up to 32 different microorganisms
Assay: in vitro antibacterial activity (MIC), agar dilution on Brain Heart Infusion (BHI) agar with Steers replicator
Type: cell-based
Conditions: unit assumed
Procedure: Representative compounds of the present invention were assayed in vitro for antibacterial activity as follows: Twelve petri dishes containing successive aqueous dilutions of the test compound mixed with 10 mL of sterilized Brain Heart Infusion (BHI) agar (Difco 0148-01-5) were prepared. Each plate was inoculated with 1:100 (or 1:10 for slow-growing strains, such as Micrococcus and Streptococcus) dilutions of up to 32 different microorganisms, using a Steers replicator block. The inoculated plates were incubated at 35°-37° C. for 20 to 24 hours. In addition, a control plate, using BHI agar containing no test compound, was prepared and incubated at the beginning and end of each test.
An additional plate containing a compound having known susceptibility patterns for the organisms being tested and belonging to the same antibiotic class as the test compound was also prepared and incubated as a further control, as well as to provide test-to-test comparability. Erythromycin A was used for this purpose.
After incubation, each plate was visually inspected. The minimum inhibitory concentration (MIC) was defined as the lowest concentration of drug yielding no growth, a slight haze, or sparsely isolated colonies on the inoculum spot as compared to the growth control.

[1] = Candida albicans CCH 442 (code TT)
[2] = Enterococcus faecism ATCC 8043 (code II)
[3] = Escherichia coli DC-2 (code SS)
[4] = Escherichia coli JUHL (code QQ)
[5] = Micrococcus luteus ATCC 4698 (code PP)
[6] = Micrococcus luteus ATCC 9341 (code OO)
[7] = Mycobacterium smegmatis ATCC 114 (code UU)
[8] = Nocardia Asteroides ATCC9970 (code VV)
[9] = Staphylococcus aureus 1775 (code GG)
[10] = Staphylococcus aureus A-5278 (code CC)
[11] = Staphylococcus aureus ATCC 6538P (code AA)
[12] = Staphylococcus aureus CMX 553 (code FF)
[13] = Staphylococcus aureus CMX 642A (code DD)
[14] = Staphylococcus aureus NCTC10649M (code EE)
[15] = Staphylococcus epidermidis 3519 (code HH)
[16] = Streptococcus agalactiae CMX 508 (code KK)
[17] = Streptococcus bovis A-5169 (code JJ)
[18] = Streptococcus pyogenes 930 (code MM)
[19] = Streptococcus pyogenes EES61 (code LL)
[20] = Streptococcus pyogenes PIU 2548 (code NN)
[21] = Staphylococcus aureus A5177 (code BB)

CCC1OC(=O)C(C)C(=O)C(C)C(OC2OC(C)CC(N(C)C)C2O)C(C)(OCC=Cc2cccc3ncccc23)CC(C)C(=O)C(C)C2NC(=O)OC12C (stereo not shown) [Example 196, R is —CH2CH═CH-(5-quinolyl)]
MIC [1]: > 100 µg/mL
MIC [2]: 0.05 µg/mL (≈ 0.0653 µM)
MIC [3]: > 100 µg/mL
MIC [4]: > 100 µg/mL
MIC (Escherichia coli SS (code RR)): 0.39 µg/mL (≈ 0.509 µM)
MIC [5]: 0.1 µg/mL (≈ 0.131 µM)
MIC [6]: 0.01 µg/mL (≈ 0.0131 µM)
MIC [7]: 0.2 µg/mL (≈ 0.261 µM)
MIC [8]: 0.1 µg/mL (≈ 0.131 µM)
MIC [9]: > 100 µg/mL
MIC [10]: > 100 µg/mL
MIC [11]: 0.1 µg/mL (≈ 0.131 µM)
MIC [12]: 0.1 µg/mL (≈ 0.131 µM)
MIC [13]: 0.1 µg/mL (≈ 0.131 µM)
MIC [14]: 0.1 µg/mL (≈ 0.131 µM)
MIC [15]: 0.2 µg/mL (≈ 0.261 µM)
MIC [16]: ≤ 0.005 µg/mL
MIC [17]: ≤ 0.005 µg/mL
MIC [18]: > 100 µg/mL
MIC [19]: ≤ 0.005 µg/mL
MIC [20]: 0.2 µg/mL (≈ 0.261 µM)

CCC1OC(=O)C(C)C(=O)C(C)C(OC2OC(C)CC(N(C)C)C2O)C(C)(OCC=Cc2ccc3nc(C)ccc3c2)CC(C)C(=O)C(C)C2NC(=O)OC12C (stereo not shown) [Example 197, R is —CH2CH═CH-(2-methyl-6-quinolyl)]
MIC [1]: > 100 µg/mL
MIC [2]: 0.05 µg/mL (≈ 0.0641 µM)
MIC [3]: 100 µg/mL (≈ 128 µM)
MIC [4]: 100 µg/mL (≈ 128 µM)
MIC (Escherichia coli SS (code RR)): 0.2 µg/mL (≈ 0.256 µM)
MIC [5]: 0.2 µg/mL (≈ 0.256 µM)
MIC [6]: 0.02 µg/mL (≈ 0.0256 µM)
MIC [7]: 1.56 µg/mL (≈ 2 µM)
MIC [8]: 0.1 µg/mL (≈ 0.128 µM)
MIC [9]: > 100 µg/mL
MIC [21]: 0.1 µg/mL (≈ 0.128 µM)
MIC [10]: > 100 µg/mL
MIC [11]: 0.1 µg/mL (≈ 0.128 µM)
MIC [12]: 0.2 µg/mL (≈ 0.256 µM)
MIC [13]: 0.1 µg/mL (≈ 0.128 µM)
MIC [14]: 0.2 µg/mL (≈ 0.256 µM)
MIC [15]: 0.1 µg/mL (≈ 0.128 µM)
MIC [16]: ≤ 0.005 µg/mL
MIC [17]: ≤ 0.005 µg/mL
MIC [18]: 100 µg/mL (≈ 128 µM)
MIC [19]: ≤ 0.005 µg/mL
MIC [20]: 0.1 µg/mL (≈ 0.128 µM)

CCC1OC(=O)C(C)C(=O)C(C)C(OC2OC(C)CC(N(C)C)C2OC(C)=O)C(C)(OCC=Cc2cnc3ccccc3c2)CC(C)C(=O)C(C)C2NC(=O)OC12C (stereo not shown) [Example 198, Compound of Formula (III): L is CO, T is NH, R^c is acetyl; R is —CH2CH═CH-(3-quinolyl)]
MIC [1]: > 100 µg/mL
MIC [2]: 0.02 µg/mL
MIC [3]: 50 µg/mL
MIC [4]: 50 µg/mL
MIC (Escherichia coli SS (code RR)): 0.1 µg/mL
MIC [5]: 0.1 µg/mL
MIC [6]: ≤ 0.005 µg/mL
MIC [7]: 0.39 µg/mL
MIC [8]: 0.02 µg/mL
MIC [9]: > 100 µg/mL
MIC [21]: 0.05 µg/mL
MIC [10]: > 100 µg/mL
MIC [11]: 0.05 µg/mL
MIC [12]: 0.02 µg/mL
MIC [13]: 0.05 µg/mL
MIC [14]: 0.05 µg/mL
MIC [15]: 0.1 µg/mL
MIC [16]: ≤ 0.005 µg/mL
MIC [17]: ≤ 0.005 µg/mL
MIC [18]: 0.39 µg/mL
MIC [19]: ≤ 0.005 µg/mL
MIC [20]: 0.1 µg/mL

CCC1OC(=O)C(C)C(=O)C(C)C(OC2OC(C)CC(N(C)C)C2O)C(C)(OCC=Cc2cc3nccnc3cc2[N+](=O)[O-])CC(C)C(=O)C(C)C2NC(=O)OC12C (stereo not shown) [Example 200, R is —CH2CH═CH-(7-nitro-6-quinoxalinyl)]
MIC (organism code AA): 0.1 µg/mL (≈ 0.123 µM)
MIC (organism code BB): 0.1 µg/mL (≈ 0.123 µM)
MIC (organism code CC): > 100 µg/mL
MIC (organism code DD): 0.1 µg/mL (≈ 0.123 µM)
MIC (organism code EE): 0.1 µg/mL (≈ 0.123 µM)
MIC (organism code FF): 0.1 µg/mL (≈ 0.123 µM)
MIC (organism code GG): > 100 µg/mL
MIC (organism code HH): 0.1 µg/mL (≈ 0.123 µM)
MIC (organism code II): 0.02 µg/mL (≈ 0.0246 µM)
MIC (organism code JJ): 0.01 µg/mL (≈ 0.0123 µM)
MIC (organism code KK): 0.02 µg/mL (≈ 0.0246 µM)
MIC (organism code MM): 50 µg/mL (≈ 61.6 µM)
MIC (organism code NN): 0.2 µg/mL (≈ 0.246 µM)
MIC (organism code OO): 0.01 µg/mL (≈ 0.0123 µM)
MIC (organism code PP): 0.2 µg/mL (≈ 0.246 µM)
MIC (organism code QQ): 50 µg/mL (≈ 61.6 µM)
MIC (organism code RR): 0.39 µg/mL (≈ 0.48 µM)
MIC (organism code SS): 12.5 µg/mL (≈ 15.4 µM)
MIC (organism code TT): > 100 µg/mL
MIC (organism code UU): 0.78 µg/mL (≈ 0.961 µM)
MIC (organism code VV): 0.1 µg/mL (≈ 0.123 µM)
MIC (organism code WW): 2 µg/mL (≈ 2.46 µM)
MIC (organism code XX): ≤ 0.004 µg/mL
MIC (organism code YY): ≤ 0.004 µg/mL
MIC (organism code ZZ): > 128 µg/mL
MIC (organism code ZZA): 0.25 µg/mL (≈ 0.308 µM)

CCC1OC(=O)C(C)C(=O)C(C)C(OC2OC(C)CC(N(C)C)C2O)C(C)(OCC=Cc2cnc3ccc(N)cc3c2)CC(C)C(=O)C(C)C2NC(=O)OC12C (stereo not shown) [Example 201, R is —CH2CH═CH-(6-amino-3-quinolyl)]
MIC (organism code AA): 0.1 µg/mL (≈ 0.128 µM)
MIC (organism code BB): 0.1 µg/mL (≈ 0.128 µM)
MIC (organism code CC): > 100 µg/mL
MIC (organism code DD): 0.1 µg/mL (≈ 0.128 µM)
MIC (organism code EE): 0.1 µg/mL (≈ 0.128 µM)
MIC (organism code FF): 0.1 µg/mL (≈ 0.128 µM)
MIC (organism code GG): > 100 µg/mL
MIC (organism code HH): 0.01 µg/mL (≈ 0.0128 µM)
MIC (organism code II): 0.01 µg/mL (≈ 0.0128 µM)
MIC (organism code JJ): 0.01 µg/mL (≈ 0.0128 µM)
MIC (organism code KK): 0.01 µg/mL (≈ 0.0128 µM)
MIC (organism code LL): 0.01 µg/mL (≈ 0.0128 µM)
MIC (organism code MM): 1.56 µg/mL (≈ 2 µM)
MIC (organism code NN): 0.2 µg/mL (≈ 0.256 µM)
MIC (organism code OO): 0.05 µg/mL (≈ 0.064 µM)
MIC (organism code PP): 0.1 µg/mL (≈ 0.128 µM)
MIC (organism code QQ): 50 µg/mL (≈ 64 µM)
MIC (organism code RR): 0.1 µg/mL (≈ 0.128 µM)
MIC (organism code SS): 50 µg/mL (≈ 64 µM)
MIC (organism code TT): > 100 µg/mL
MIC (organism code UU): 6.2 µg/mL (≈ 7.94 µM)
MIC (organism code VV): 0.2 µg/mL (≈ 0.256 µM)
MIC (organism code WW): 2 µg/mL (≈ 2.56 µM)
MIC (organism code XX): 0.03 µg/mL (≈ 0.0384 µM)
MIC (organism code YY): 0.03 µg/mL (≈ 0.0384 µM)
MIC (organism code ZZ): 16 µg/mL (≈ 20.5 µM)
MIC (organism code ZZA): 1 µg/mL (≈ 1.28 µM)
